Test results as given in ChEMBL document CHEMBL1140141 (J Nat Prod, 2008).

Assays:
[1] = biological target: T1, Alpha-2A adrenergic receptor (Homo sapiens) (UniProt P08913); test: Displacement of [3H]MK912 from human cloned adrenergic alpha-2a receptor at 10 uM
T1 sequence (whole entry): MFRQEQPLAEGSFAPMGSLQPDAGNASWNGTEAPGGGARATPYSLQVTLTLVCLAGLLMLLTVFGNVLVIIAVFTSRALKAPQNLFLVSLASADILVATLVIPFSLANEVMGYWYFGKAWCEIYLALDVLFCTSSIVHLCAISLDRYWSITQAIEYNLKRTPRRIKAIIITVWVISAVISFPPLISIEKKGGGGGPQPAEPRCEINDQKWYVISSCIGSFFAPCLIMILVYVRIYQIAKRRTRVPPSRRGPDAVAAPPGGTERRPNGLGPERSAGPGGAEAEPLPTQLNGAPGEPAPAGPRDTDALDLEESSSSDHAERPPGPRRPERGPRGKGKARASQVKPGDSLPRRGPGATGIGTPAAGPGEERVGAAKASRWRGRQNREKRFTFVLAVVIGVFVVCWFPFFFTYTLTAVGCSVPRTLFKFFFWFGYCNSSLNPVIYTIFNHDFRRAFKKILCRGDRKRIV

[2] = biological target: Histamine H3 receptor (Rattus norvegicus) (UniProt Q9QYN8); settings: 10 uM
Description: Displacement of [3H]SMT from histamine H3 receptor in forebrain of rat at 10 uM

[3] = biological target: Histamine H2 receptor (Cavia porcellus, UniProt P47747); test: Displacement of [125I]-APT from histamine H2 receptor in brain of guinea pig; type: tissue-based
[4] = biological target: hERG (KCNH2) (Homo sapiens, UniProt Q12809); test: Inhibition of human ERG at 10 uM
[5] = Inhibition of L-type calcium channel at 10 uM
[6] = biological target: T2, Alpha-1D adrenergic receptor (Homo sapiens) (UniProt P25100); settings: 10 uM
T2 sequence (whole entry): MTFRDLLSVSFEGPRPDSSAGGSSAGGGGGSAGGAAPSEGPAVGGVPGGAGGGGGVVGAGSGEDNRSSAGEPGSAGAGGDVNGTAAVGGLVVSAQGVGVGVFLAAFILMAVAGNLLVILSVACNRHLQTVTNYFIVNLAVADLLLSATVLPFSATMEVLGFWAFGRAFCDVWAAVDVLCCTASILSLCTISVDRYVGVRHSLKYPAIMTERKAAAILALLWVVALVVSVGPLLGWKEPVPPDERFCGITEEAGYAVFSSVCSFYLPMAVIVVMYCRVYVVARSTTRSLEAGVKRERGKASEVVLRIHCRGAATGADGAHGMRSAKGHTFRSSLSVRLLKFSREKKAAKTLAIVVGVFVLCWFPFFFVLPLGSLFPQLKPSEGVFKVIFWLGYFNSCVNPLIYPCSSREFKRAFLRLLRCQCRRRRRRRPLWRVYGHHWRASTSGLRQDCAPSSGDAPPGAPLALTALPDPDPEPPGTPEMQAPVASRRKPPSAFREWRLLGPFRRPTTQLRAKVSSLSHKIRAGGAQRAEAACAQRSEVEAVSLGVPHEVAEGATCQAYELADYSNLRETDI
Description: Inhibition of cloned adrenergic Alpha-1D receptor at 10 uM

[7] = biological target: T3, Alpha-1D adrenergic receptor (Homo sapiens, UniProt P25100); test: Inhibition of cloned adrenergic Alpha-1D receptor
T3 sequence (P25100 whole entry): T2 sequence (whole entry)

[8] = biological target: Histamine H3 receptor (Rattus norvegicus, UniProt Q9QYN8); test: Displacement of [3H]SMT from histamine H3 receptor in forebrain of rat
[9] = biological target: T4, Alpha-2A adrenergic receptor (Homo sapiens, UniProt P08913); test: Displacement of [3H]MK912 from human cloned adrenergic alpha-2a receptor
T4 sequence (P08913 whole entry): T1 sequence (whole entry)

Chain of Histamine H2 receptor (P47747 whole entry, looked up): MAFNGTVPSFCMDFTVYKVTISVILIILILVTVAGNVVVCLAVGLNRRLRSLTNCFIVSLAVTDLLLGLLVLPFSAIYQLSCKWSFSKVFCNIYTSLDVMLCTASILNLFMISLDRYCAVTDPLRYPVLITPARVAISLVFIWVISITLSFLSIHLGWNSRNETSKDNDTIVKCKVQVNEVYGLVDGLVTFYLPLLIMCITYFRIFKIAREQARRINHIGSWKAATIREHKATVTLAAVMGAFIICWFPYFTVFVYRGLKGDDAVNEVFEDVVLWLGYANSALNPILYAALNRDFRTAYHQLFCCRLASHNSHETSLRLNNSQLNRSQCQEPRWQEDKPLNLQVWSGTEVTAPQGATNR
Chain of Histamine H3 receptor (Q9QYN8 whole entry): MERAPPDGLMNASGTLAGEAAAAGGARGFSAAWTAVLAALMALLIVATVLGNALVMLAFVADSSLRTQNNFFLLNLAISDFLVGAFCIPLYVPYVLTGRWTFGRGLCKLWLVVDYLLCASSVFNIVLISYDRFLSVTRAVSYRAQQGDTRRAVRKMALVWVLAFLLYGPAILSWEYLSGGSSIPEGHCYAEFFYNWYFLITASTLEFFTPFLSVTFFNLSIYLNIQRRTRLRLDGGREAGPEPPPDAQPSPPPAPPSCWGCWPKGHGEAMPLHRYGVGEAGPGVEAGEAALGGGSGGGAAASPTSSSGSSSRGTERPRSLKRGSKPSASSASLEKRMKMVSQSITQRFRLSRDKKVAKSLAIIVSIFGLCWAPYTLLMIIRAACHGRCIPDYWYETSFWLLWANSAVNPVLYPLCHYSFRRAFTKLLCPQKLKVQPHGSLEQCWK
Chain of hERG (KCNH2) (Q12809 whole entry): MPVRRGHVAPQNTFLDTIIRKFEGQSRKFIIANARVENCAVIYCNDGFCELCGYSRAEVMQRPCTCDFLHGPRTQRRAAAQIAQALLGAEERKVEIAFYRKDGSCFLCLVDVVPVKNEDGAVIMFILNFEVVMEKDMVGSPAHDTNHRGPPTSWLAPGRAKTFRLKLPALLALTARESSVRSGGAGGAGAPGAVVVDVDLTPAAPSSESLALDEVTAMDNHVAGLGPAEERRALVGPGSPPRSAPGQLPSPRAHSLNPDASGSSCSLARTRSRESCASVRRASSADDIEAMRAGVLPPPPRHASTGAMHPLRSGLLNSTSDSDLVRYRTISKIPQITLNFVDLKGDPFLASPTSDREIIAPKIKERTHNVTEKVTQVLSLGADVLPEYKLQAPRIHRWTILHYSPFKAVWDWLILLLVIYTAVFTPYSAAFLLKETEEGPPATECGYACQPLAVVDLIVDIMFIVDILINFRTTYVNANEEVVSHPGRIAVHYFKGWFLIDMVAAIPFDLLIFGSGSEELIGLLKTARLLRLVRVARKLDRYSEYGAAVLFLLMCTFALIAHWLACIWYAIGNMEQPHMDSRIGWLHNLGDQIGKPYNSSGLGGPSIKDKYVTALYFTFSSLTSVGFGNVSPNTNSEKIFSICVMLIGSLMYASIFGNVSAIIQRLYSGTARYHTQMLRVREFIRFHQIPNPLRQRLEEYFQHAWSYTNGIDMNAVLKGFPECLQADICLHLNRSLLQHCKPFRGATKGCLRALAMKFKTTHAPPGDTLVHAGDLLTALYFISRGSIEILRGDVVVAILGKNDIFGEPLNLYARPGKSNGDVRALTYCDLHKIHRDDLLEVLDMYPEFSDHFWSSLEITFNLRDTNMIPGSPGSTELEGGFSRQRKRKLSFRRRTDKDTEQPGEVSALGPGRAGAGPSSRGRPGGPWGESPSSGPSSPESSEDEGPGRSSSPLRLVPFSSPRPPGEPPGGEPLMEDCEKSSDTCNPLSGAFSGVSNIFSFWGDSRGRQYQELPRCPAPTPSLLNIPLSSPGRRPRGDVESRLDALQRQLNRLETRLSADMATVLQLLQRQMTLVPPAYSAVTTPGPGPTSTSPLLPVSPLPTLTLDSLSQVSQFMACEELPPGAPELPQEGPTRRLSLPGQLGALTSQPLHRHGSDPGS
Chain of Histamine H3 receptor (Rattus norvegicus) (Q9QYN8 whole entry): as the sequence (Q9QYN8 whole entry) above

inhibition [1]: 97% | inhibition [2]: 91% | IC50 [3]: 1250 nM | Ki [3]: 1020 nM | inhibition [5]: 50% | inhibition [6]: 91% | IC50 [7]: 560 nM | Ki [7]: 275 nM | IC50 [8]: 2350 nM | Ki [8]: 1040 nM | IC50 [9]: 185 nM | Ki [9]: 69 nM
SMILES: CN(C)CCCOc1ccc(CCNC(=O)c2cc(Br)c[nH]2)cc1Br [DISPYRIN]
inhibition at 10 µM [4]: 50%
